We go through ten compounds from paper PMC5573954 (Hippocampus, 2017).

By EC50 is commonly meant the concentration that produces a half-maximal response. One may read the IC50 as the point on the concentration scale where inhibition reaches its midpoint.

In one assay the target is T1, hM4 (Homo sapiens, UniProt P08173).
T1 sequence (P08173 1-479): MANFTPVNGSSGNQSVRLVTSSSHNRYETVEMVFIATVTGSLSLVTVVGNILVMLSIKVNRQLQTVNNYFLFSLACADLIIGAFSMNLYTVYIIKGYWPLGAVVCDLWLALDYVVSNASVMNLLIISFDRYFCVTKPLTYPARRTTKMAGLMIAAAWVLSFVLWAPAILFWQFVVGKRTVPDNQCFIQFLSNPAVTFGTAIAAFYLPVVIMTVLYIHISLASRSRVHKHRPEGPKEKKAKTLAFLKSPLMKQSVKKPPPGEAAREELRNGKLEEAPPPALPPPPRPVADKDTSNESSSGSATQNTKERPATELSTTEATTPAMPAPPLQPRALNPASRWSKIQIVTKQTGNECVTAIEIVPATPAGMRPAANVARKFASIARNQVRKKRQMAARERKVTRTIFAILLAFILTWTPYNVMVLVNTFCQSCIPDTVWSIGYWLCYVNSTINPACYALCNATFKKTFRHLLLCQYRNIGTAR
The experiment in a line: GloSensor cAMP functional assay, HEK293 cells stably expressing hM4. The settings on record: for selectivity for hM4 over hM2 (fold shift of PAM EC50): hM2 EC50 versus hM4 EC50, PAM mode.

The target of a further assay is hM3 (Homo sapiens, UniProt P20309). The experiment in a line: FLIPR Ca2+ functional assay, CHO K1 cells stably expressing hM3. It counts as cell-based.
For the next assay, the target named is T2, hM5 (Homo sapiens, UniProt P08912).
T2 sequence (P08912 1-532): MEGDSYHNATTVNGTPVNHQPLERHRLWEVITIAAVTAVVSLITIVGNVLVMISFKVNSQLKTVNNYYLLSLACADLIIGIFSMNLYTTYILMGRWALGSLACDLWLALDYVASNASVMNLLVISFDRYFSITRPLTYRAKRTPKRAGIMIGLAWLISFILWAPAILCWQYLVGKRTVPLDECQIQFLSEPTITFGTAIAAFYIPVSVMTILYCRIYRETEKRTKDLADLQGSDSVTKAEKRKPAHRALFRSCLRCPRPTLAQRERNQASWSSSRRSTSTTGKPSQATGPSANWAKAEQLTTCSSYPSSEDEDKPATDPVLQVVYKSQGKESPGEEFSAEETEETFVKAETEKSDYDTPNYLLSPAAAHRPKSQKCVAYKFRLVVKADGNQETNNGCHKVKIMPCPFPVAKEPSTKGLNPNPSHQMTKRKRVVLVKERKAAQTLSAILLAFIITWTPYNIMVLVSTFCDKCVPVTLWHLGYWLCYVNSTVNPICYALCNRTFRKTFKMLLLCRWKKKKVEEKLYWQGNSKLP
The experiment in a line: FLIPR Ca2+ functional assay, CHO K1 cells stably expressing hM5. The class given is cell-based.

The next assay addresses T3, rat M4 receptor (rM4) (Rattus norvegicus, UniProt P08485).
T3 sequence (P08485 1-478): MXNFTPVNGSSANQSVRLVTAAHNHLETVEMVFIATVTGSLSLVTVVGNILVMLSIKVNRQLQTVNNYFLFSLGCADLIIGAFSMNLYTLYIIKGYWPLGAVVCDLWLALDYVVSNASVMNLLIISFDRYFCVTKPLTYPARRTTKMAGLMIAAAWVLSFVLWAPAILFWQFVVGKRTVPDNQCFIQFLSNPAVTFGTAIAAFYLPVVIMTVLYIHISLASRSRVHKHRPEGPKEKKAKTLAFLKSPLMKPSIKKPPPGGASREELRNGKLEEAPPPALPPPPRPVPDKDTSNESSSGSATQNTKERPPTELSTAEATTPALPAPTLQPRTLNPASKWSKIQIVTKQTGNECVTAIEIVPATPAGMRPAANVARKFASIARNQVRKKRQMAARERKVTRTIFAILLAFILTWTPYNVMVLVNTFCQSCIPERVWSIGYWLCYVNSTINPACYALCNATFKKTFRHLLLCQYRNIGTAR
Nature of the assay: GloSensor cAMP functional assay, HEK293 cells stably expressing rM4.

The test system of assay [1] is TA‐evoked EPSCs in CA1 pyramidal neurons. The class given is cell-based, rat.
Assay [2] has as its system SC‐evoked EPSCs in CA1 pyramidal neurons. It counts as cell-based, rat.
The target of the next assay is T4, hM1 (Homo sapiens, UniProt P11229).
T4 sequence (P11229 1-460): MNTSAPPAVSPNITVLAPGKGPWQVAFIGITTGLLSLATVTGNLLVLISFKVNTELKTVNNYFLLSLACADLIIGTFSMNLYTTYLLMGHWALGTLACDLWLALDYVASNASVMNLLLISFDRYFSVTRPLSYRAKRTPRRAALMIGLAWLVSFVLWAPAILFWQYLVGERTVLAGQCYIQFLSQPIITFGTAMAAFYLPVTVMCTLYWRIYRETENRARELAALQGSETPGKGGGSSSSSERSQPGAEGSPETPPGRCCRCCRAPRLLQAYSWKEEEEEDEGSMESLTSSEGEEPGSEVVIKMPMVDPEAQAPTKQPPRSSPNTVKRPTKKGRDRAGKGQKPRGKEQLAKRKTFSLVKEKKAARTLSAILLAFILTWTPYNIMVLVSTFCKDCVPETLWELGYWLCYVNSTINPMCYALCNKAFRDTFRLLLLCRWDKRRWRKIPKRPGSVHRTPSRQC
The experiment in a line: FLIPR Ca2+ functional assay, CHO K1 cells stably expressing hM1. The class given is cell-based.

The subject of another assay is CA1 pyramidal neurons. The experiment in a line: Whole‐cell current step evoked firing of CA1 pyramidal neurons. The class given is cell-based, rat.
Assay [3] concerns putative PV+ CA1 interneurons. The experiment in a line: Whole‐cell current step evoked firing of putative PV+ CA1 interneurons. It counts as cell-based, rat. The settings on record: 300 nM; n = 4; p = 0.0275.
Assay [4] relates to spontaneous firing rates of CA1 neurons.
For a further assay, the system named is rat M4 receptor. The conditions noted are these: ref Chan et al., 2008; cited from earlier work.
For another assay, the target named is T5, hM2 (Homo sapiens, UniProt P08172).
T5 sequence (P08172 1-466): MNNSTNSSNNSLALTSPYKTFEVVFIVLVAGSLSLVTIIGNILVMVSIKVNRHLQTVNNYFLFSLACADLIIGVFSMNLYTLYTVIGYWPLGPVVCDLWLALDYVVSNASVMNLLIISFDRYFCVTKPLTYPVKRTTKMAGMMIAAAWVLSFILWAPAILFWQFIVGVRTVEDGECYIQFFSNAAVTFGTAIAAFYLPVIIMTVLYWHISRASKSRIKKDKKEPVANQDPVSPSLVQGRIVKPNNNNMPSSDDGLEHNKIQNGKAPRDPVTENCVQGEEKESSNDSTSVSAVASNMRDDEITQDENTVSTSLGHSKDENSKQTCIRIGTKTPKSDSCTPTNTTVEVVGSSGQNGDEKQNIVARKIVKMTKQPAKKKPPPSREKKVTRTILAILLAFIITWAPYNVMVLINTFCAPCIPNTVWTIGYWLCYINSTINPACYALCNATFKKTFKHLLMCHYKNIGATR
Nature of the assay: GloSensor cAMP functional assay, HEK293 cells stably expressing hM2. The class given is cell-based.

For assay [5], the target named is beta‐2 adrenergic receptors (Homo sapiens, UniProt P07550). Nature of the assay: Nonmuscarinic off-target functional activity: beta-2 adrenergic antagonism. The class given is cell-based.
In another assay the target is 5HT2b receptors (Homo sapiens, UniProt P41595). Nature of the assay: Nonmuscarinic off-target functional activity: 5HT2b antagonism. It counts as cell-based.
The test system of assay [6] is SC‐evoked synaptic field potentials in CA1 of hippocampal slices. Nature of the assay: Extracellular field potentials evoked by SC stimulation, hippocampal slices. The settings on record: from fitted dose–response curve, Figure 2a.
[7] abbreviates: 5 μM, end of recordings with PT‐3763, mean ± SEM.

Like-named read-outs stand apart in the source and are kept apart here.

Chain of hM3 (P20309 whole entry): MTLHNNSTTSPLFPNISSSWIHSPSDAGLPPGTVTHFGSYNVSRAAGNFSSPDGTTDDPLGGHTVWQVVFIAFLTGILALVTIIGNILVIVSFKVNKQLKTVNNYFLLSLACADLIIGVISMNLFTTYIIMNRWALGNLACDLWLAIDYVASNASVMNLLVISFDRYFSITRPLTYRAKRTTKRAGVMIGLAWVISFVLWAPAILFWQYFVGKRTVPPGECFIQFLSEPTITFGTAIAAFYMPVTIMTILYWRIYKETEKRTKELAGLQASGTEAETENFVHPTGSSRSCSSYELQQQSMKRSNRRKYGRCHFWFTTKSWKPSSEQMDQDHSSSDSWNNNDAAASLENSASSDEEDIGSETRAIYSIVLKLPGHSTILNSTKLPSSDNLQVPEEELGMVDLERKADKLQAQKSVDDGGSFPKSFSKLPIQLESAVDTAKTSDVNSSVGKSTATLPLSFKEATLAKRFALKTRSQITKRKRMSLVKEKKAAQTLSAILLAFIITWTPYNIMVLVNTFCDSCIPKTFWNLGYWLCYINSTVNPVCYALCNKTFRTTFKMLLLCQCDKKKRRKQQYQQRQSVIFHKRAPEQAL
Chain of 5HT2b receptors (P41595 whole entry): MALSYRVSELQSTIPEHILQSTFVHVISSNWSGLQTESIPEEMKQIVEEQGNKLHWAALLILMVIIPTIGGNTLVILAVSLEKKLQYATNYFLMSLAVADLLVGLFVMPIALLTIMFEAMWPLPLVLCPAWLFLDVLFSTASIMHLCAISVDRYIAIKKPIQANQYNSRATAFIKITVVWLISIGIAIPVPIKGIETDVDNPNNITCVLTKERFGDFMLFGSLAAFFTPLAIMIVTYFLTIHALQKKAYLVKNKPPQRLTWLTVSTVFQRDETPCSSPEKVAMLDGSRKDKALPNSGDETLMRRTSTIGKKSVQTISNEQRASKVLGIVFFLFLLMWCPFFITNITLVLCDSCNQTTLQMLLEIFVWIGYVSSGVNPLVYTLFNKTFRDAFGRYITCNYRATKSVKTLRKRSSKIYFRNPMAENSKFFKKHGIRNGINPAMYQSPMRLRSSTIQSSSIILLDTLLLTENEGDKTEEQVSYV
Chain of beta‐2 adrenergic receptors (P07550 whole entry): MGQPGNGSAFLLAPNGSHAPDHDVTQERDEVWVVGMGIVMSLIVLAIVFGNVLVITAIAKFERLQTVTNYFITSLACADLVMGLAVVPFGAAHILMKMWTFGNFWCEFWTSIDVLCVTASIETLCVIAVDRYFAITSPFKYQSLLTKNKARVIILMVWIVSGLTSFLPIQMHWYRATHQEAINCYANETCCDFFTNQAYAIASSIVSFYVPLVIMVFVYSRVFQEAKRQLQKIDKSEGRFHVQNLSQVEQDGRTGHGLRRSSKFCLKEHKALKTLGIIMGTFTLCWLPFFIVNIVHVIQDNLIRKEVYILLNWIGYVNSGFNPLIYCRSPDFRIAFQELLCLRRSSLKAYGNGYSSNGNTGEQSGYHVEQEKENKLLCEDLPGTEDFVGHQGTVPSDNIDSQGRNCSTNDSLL

With `CC(=O)OCC[N+](C)(C)C` [ACh, acetylcholine], the “ACh EC20” value came to 15 nM at hM4 (hM4 cell line), 0.8 nM at hM3 (hM3 cell line), 2 nM on hM5 (hM5 cell line) and 0.8 nM at rat M4 receptor (rM4) (rM4 cell line).

For the compound `N#Cc1cc2[nH]c(=O)c(=O)[nH]c2cc1[N+](=O)[O-]` [CNQX], the “CNQX‐induced suppression of TA‐evoked responses” value in [1] (setting [7]) turned out to be 79.4 ± 4.8%. Further, the “CNQX‐induced suppression of SC‐evoked responses” value in assay [2] (setting [7]) was 85.2 ± 4.1%.

In the case of `Cc1cc(F)c2[nH]c(=O)n(C3CCN(C4CCOCC4)CC3)c2c1` [GSK1034702], the EC50 was determined as 27 nM on hM1 and 1430 nM on hM4. Besides, in the assay on CA1 pyramidal neurons (300 nM, 200 pA current injection), the spike frequency accommodation result is listed as “significantly reduced”. Moreover, in the assay on CA1 pyramidal neurons (300 nM, p = 0.012 vs baseline), the “number of spikes evoked in response to a 200 pA injected current step” value was “increase”. Moreover, the “firing rates of interneurons following current step” value in assay [3] is given as “increased firing rates”. The “upper z‐score asymptote of normalized spontaneous firing rates” value in assay [4] (GSK1034702 data set with VU0255035 reversal) is recorded as 56.3 ± 11.9; in assay [4] (GSK1034702 data set with pirenzipine reversal) it was 86.9 ± 13.6. Moreover, the “effect on amplitude, slope, or PPR of EPSCs evoked by TA stimulation” value in assay [1] (300 nM, 100 μM picrotoxin) is given as “no significant effect”. Further, the “effect on amplitude, slope, or PPR of EPSCs evoked by SC stimulation” value in [2] (300 nM, 100 μM picrotoxin) was “no significant effect”.

For the compound `COc1nc2sc(C(=O)NC3CC3)c(N)c2c(C)c1Cl` [LY2033298], the EC50 on hM4 (hM4, PAM mode, in the presence of an EC20 of ACh (15 nM), isoproterenol 50 nM, brackets 95% CI) was determined as 41 nM; at hM2 (hM2, PAM mode, in the presence of an EC20 of ACh (3 nM), isoproterenol 50 nM, brackets 95% CI) it was 3280 nM. Moreover, in the assay with rat M4 receptor, the “potency at the rat M4 receptor compared with the human” value is “much weaker”.

Regarding `Cc1nnc2sc(C(=O)NC3CN(c4cccnc4)C3)c(N)c2c1C` [PT‐1148, 5‐amino‐3,4‐dimethyl‐N‐(1‐(pyridin‐3‐yl)azetidin‐3‐yl)thieno[2,3‐c]pyridazine‐6‐carboxamide], the “selectivity for hM4 over hM2 (fold shift of PAM EC50)” value at hM4 was found to be 536 fold. Besides, the “upper z‐score asymptote of normalized spontaneous firing rates” value in assay [4] (in the presence of 20 nM oxotremorine and 1 μM VU0255035, not significant (p = 0.875)) is given as 3.77 ± 23.9.

In the case of `Cc1cc(C)c2c(N)c(C(=O)NC3CN(c4cccnc4)C3)sc2n1` [PT‐3763, 3‐amino‐4,6‐dimethyl‐N‐(1‐(pyridin‐3‐yl)azetidin‐3‐yl)thieno[2,3‐b]pyridine‐2‐carboxamide], the “selectivity for hM4 over hM2 (fold shift of PAM EC50)” value on hM4 was 28 fold. Further, in assay [5], half-maximal inhibition (IC50) was put at 2990 nM.

`CCOC(=O)N1CCCC(N2CCC(c3cccnc3OC)CC2)CC1` (stereo not shown) [PT‐6950, ethyl 4‐(4‐(2‐methoxypyridin‐3‐yl)piperidin‐1‐yl)azepane‐1‐carboxylate]: the EC50 is 312 nM on hM1; more than 10000 nM at hM3; more than 10000 nM at hM5; 2.62 nM at rat M4 receptor (rM4); 2880 nM on hM2. At 5HT2b receptors, this compound yielded an IC50 of 1260 nM. Further, the “upper z‐score asymptote of normalized spontaneous firing rates” value in [4] (compound alone, mean ± SEM) is recorded as 12.0 ± 16.7.

Take `O=C(CCNS(=O)(=O)c1cccc2nsnc12)N1CCN(c2ccncc2)CC1` [VU0255035]: in assay [4] (3 μM), the “effect on GSK1034702 induced increase in CA1 firing rates” value is recorded as “reversed” and the “effect on oxotremorine induced increase in spontaneous firing rates” value is listed as “partially reversed”.

As to `O=C1CCCN1CC#CCN1CCCC1` [oxotremorine], in assay [6], the “EC20 of oxotremorine for reduction of SC‐evoked field potentials” value is 20 nM. Also, the “upper z‐score asymptote of normalized spontaneous firing rates” value in assay [4] (compound alone, mean ± SEM) is 108.2 ± 6.3.

Regarding `CN1CCN(CC(=O)N2c3ccccc3C(=O)Nc3cccnc32)CC1` [pirenzepine], in the assay on CA1 pyramidal neurons (3 μM), the “effect on GSK1034702 induced increase in evoked spikes” value is “reversed” and the “effect on GSK1034702 induced reduction of spike frequency accommodation” value is reported as “similarly reversed”. The “effect on GSK1034702 induced increase in CA1 firing rates” value in assay [4] (3 μM) was “reversed”. For the same compound, in assay [2] (3 μM, applied after PTX + OXO + M4 PAM), the “effect on M4 PAM induced reduction of SC‐evoked EPSC amplitude and slope” value is recorded as “reversed”.
